Assay results: patent US20180207228A1, “PEPTIDE COMBINATIONS AND USES THEREOF FOR TREATING GRASS ALLERGY” (ALK-Abelló A/S, priority 2015, published 2018)

How the values were obtained:
[1] = system: allergen specific T cells; assay: T cell proliferation assay (72 h) on donor derived T cell lines (TCL02/TCL03); assay type: cell-based, human; settings: reference peptides of WO2010/089554, proliferation only
Method in brief: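 Overlapping 20-mer and selected 15-mer grass allergen peptides were screened for proliferation using TCL02 (day 24) or TCL03 (day 34) lines. Lines came from grass-allergic donors' CD8-depleted PBMCs, primed with natural allergen mix and expanded with irradiated autologous or allogeneic APCs, PHA-P 0.5 μg/ml and rIL-2.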

[2] = system: grass pollen allergic donor derived T cell lines; assay: Dose response titration in T cell proliferation assay; assay type: cell-based, human
Procedure: The dose-response relationship was tested by measuring the percentage of donor response (i.e. the percentage of donor coverage) in concentrations of 2.0, 0.1, 0.005 and 0.00025 μg/ml for the peptide combinations and in concentrations of 2.0, 0.2, 0.02 and 0.002 μg/ml for single peptides. The donor response was determined using T cell proliferation data as described in Example 3.
Relative magnitude value for a peptide or a peptide combination was calculated as percentage of highest T cell response to an allergen or a mix, by the same donor. In this way, allergen or peptide combination with highest magnitude of T cell response gets a value of 100 and T cell response magnitude of remaining peptides/peptide combinations are normalized or calculated relative to 100, for example Relative magnitude=100*(T cell response magnitude of peptide or combination/Highest T cell response in a donor). Relative magnitude were calculated mainly on Phl p 1. For donors non reactive to Phl p 1, Phl p 5 was used as reference
The donors were selected by seeking to maximize the HLA class II diversity in the donor cohort.
For peptide combinations, two set-ups were used:
A) Concentrations of 2.0, 0.1, 0.005 and 0.00025 μg/ml were tested on a set of T cell lines derived from 9 grass pollen allergic donors (same experiment as the data shown in FIG. 7b.).
B) Concentrations of 2.0, 0.066, 0.0022 and 0.00007 μg/ml were used on a set of T cell lines derived from 18 grass pollen allergic donors (same set as the donors used for testing of single peptides as described above).
Relative magnitude value for a peptide or a peptide combination was calculated as percentage of highest T cell response to an allergen or a mix, by the same donor. In this way, allergen or peptide combination with highest magnitude of T cell response gets a value of 100 and T cell response magnitude of remaining peptides/peptide combinations are normalized or calculated relative to 100, for example Relative magnitude=100*(T cell response magnitude of peptide or combination/Highest T cell response in a donor). […]

SMILES: CC[C@H](C)[C@H](NC(=O)[C@H](C)NC(=O)[C@H](CCCCN)NC(=O)[C@@H](NC(=O)[C@H](CC(C)C)NC(=O)[C@H](C)NC(=O)[C@H](C)NC(=O)[C@H](CCC(=O)O)NC(=O)[C@H](Cc1ccccc1)NC(=O)[C@@H](NC(=O)[C@H](C)NC(=O)[C@H](Cc1ccc(O)cc1)NC(=O)[C@H](CCCCN)NC(=O)[C@@H](NC(=O)[C@H](CCC(=O)O)NC(=O)[C@@H]1CCCN1C(=O)[C@@H](N)CCCCN)C(C)C)C(C)C)[C@@H](C)O)C(=O)N[C@H](C(=O)O)[C@@H](C)O [peptide 142]
- average relative magnitude [1]: around 8
- donor coverage, dose response of single peptides ([2]; 0.002 μg/ml, 25 donor derived T cell lines): ~35%
- average relative magnitude calculated over all donors ([2]; single peptides, FIG. 21): in the same range
